The results in this text go back to the OligoGym collection.

Oligonucleotides are given in HELM: sugar(base)linkage, 5' to 3'; d 2'-deoxyribose, r ribose, m 2'-O-methylribose, p phosphate. ss, as = sense and antisense strand
Also: test concentration or dose not given here.

This series has as its target Mmp7 (rat). Briefly: reporter assay of Huesken 2005. Particulars: siRNA. For orientation: Reporter assays use an easily measured gene product as a stand-in for the process of interest.
Regarding “RNA1{r(C)p.r(C)p.r(C)p.r(A)p.r(G)p.r(G)p.r(A)p.r(A)p.r(G)p.r(C)p.r(C)p.r(G)p.r(G)p.r(A)p.r(G)p.r(A)p.r(A)p.r(G)p.r(U)p.d(T)p.d(T)}|RNA2{r(A)p.r(C)p.r(U)p.r(U)p.r(C)p.r(U)p.r(C)p.r(C)p.r(G)p.r(G)p.r(C)p.r(U)p.r(U)p.r(C)p.r(C)p.r(U)p.r(G)p.r(G)p.r(G)p.d(A)p.d(C)}$$$RNA1{StrandType:ss}|RNA2{StrandType:as}$”, the normalised inhibition (eCFP-eYFP dual reporter) came to 64.2%.

As for “RNA1{r(C)p.r(C)p.r(C)p.r(A)p.r(G)p.r(G)p.r(U)p.r(G)p.r(U)p.r(G)p.r(G)p.r(A)p.r(G)p.r(U)p.r(G)p.r(C)p.r(C)p.r(A)p.r(G)p.d(T)p.d(T)}|RNA2{r(C)p.r(U)p.r(G)p.r(G)p.r(C)p.r(A)p.r(C)p.r(U)p.r(C)p.r(C)p.r(A)p.r(C)p.r(A)p.r(C)p.r(C)p.r(U)p.r(G)p.r(G)p.r(G)p.d(C)p.d(T)}$$$RNA1{StrandType:ss}|RNA2{StrandType:as}$”, the normalised inhibition (eCFP-eYFP dual reporter) stood at 60.7%.

“RNA1{r(C)p.r(C)p.r(C)p.r(U)p.r(A)p.r(C)p.r(C)p.r(U)p.r(A)p.r(U)p.r(C)p.r(A)p.r(A)p.r(G)p.r(G)p.r(A)p.r(G)p.r(A)p.r(U)p.d(T)p.d(T)}|RNA2{r(A)p.r(U)p.r(C)p.r(U)p.r(C)p.r(C)p.r(U)p.r(U)p.r(G)p.r(A)p.r(U)p.r(A)p.r(G)p.r(G)p.r(U)p.r(A)p.r(G)p.r(G)p.r(G)p.d(T)p.d(A)}$$$RNA1{StrandType:ss}|RNA2{StrandType:as}$”: the normalised inhibition (eCFP-eYFP dual reporter) was found to be 102%.

Consider “RNA1{r(C)p.r(C)p.r(G)p.r(C)p.r(A)p.r(C)p.r(U)p.r(U)p.r(C)p.r(A)p.r(G)p.r(U)p.r(G)p.r(G)p.r(G)p.r(A)p.r(A)p.r(C)p.r(A)p.d(T)p.d(T)}|RNA2{r(U)p.r(G)p.r(U)p.r(U)p.r(C)p.r(C)p.r(C)p.r(A)p.r(C)p.r(U)p.r(G)p.r(A)p.r(A)p.r(G)p.r(U)p.r(G)p.r(C)p.r(G)p.r(G)p.d(T)p.d(C)}$$$RNA1{StrandType:ss}|RNA2{StrandType:as}$”, for which the normalised inhibition (eCFP-eYFP dual reporter) amounted to 91.6%.

As for “RNA1{r(C)p.r(C)p.r(G)p.r(G)p.r(A)p.r(G)p.r(A)p.r(A)p.r(G)p.r(U)p.r(G)p.r(A)p.r(C)p.r(C)p.r(G)p.r(C)p.r(A)p.r(C)p.r(U)p.d(T)p.d(T)}|RNA2{r(A)p.r(G)p.r(U)p.r(G)p.r(C)p.r(G)p.r(G)p.r(U)p.r(C)p.r(A)p.r(C)p.r(U)p.r(U)p.r(C)p.r(U)p.r(C)p.r(C)p.r(G)p.r(G)p.d(C)p.d(T)}$$$RNA1{StrandType:ss}|RNA2{StrandType:as}$”, the normalised inhibition (eCFP-eYFP dual reporter) came out at 94.4%.

Turning to “RNA1{r(C)p.r(C)p.r(U)p.r(C)p.r(G)p.r(G)p.r(C)p.r(G)p.r(G)p.r(A)p.r(G)p.r(A)p.r(U)p.r(G)p.r(C)p.r(U)p.r(C)p.r(A)p.r(C)p.d(T)p.d(T)}|RNA2{r(G)p.r(U)p.r(G)p.r(A)p.r(G)p.r(C)p.r(A)p.r(U)p.r(C)p.r(U)p.r(C)p.r(C)p.r(G)p.r(C)p.r(C)p.r(G)p.r(A)p.r(G)p.r(G)p.d(C)p.d(C)}$$$RNA1{StrandType:ss}|RNA2{StrandType:as}$”, the normalised inhibition (eCFP-eYFP dual reporter) stood at 72.1%.

For the substance “RNA1{r(C)p.r(C)p.r(U)p.r(G)p.r(C)p.r(C)p.r(A)p.r(C)p.r(U)p.r(G)p.r(U)p.r(C)p.r(C)p.r(C)p.r(A)p.r(G)p.r(G)p.r(A)p.r(A)p.d(T)p.d(T)}|RNA2{r(U)p.r(U)p.r(C)p.r(C)p.r(U)p.r(G)p.r(G)p.r(G)p.r(A)p.r(C)p.r(A)p.r(G)p.r(U)p.r(G)p.r(G)p.r(C)p.r(A)p.r(G)p.r(G)p.d(G)p.d(C)}$$$RNA1{StrandType:ss}|RNA2{StrandType:as}$”, the normalised inhibition (eCFP-eYFP dual reporter) was found to be 67.9%.

Regarding “RNA1{r(C)p.r(C)p.r(U)p.r(U)p.r(C)p.r(A)p.r(C)p.r(G)p.r(A)p.r(C)p.r(U)p.r(C)p.r(U)p.r(A)p.r(A)p.r(A)p.r(A)p.r(C)p.r(A)p.d(T)p.d(T)}|RNA2{r(U)p.r(G)p.r(U)p.r(U)p.r(U)p.r(U)p.r(A)p.r(G)p.r(A)p.r(G)p.r(U)p.r(C)p.r(G)p.r(U)p.r(G)p.r(A)p.r(A)p.r(G)p.r(G)p.d(T)p.d(A)}$$$RNA1{StrandType:ss}|RNA2{StrandType:as}$”, the normalised inhibition (eCFP-eYFP dual reporter) was 126%.

In the case of “RNA1{r(C)p.r(G)p.r(A)p.r(C)p.r(U)p.r(C)p.r(U)p.r(A)p.r(A)p.r(A)p.r(A)p.r(C)p.r(A)p.r(A)p.r(A)p.r(G)p.r(A)p.r(A)p.r(G)p.d(T)p.d(T)}|RNA2{r(C)p.r(U)p.r(U)p.r(C)p.r(U)p.r(U)p.r(U)p.r(G)p.r(U)p.r(U)p.r(U)p.r(U)p.r(A)p.r(G)p.r(A)p.r(G)p.r(U)p.r(C)p.r(G)p.d(T)p.d(G)}$$$RNA1{StrandType:ss}|RNA2{StrandType:as}$”, the normalised inhibition (eCFP-eYFP dual reporter) is 113%.

As to “RNA1{r(C)p.r(G)p.r(C)p.r(A)p.r(A)p.r(G)p.r(G)p.r(G)p.r(G)p.r(A)p.r(G)p.r(A)p.r(U)p.r(C)p.r(A)p.r(C)p.r(G)p.r(G)p.r(A)p.d(T)p.d(T)}|RNA2{r(U)p.r(C)p.r(C)p.r(G)p.r(U)p.r(G)p.r(A)p.r(U)p.r(C)p.r(U)p.r(C)p.r(C)p.r(C)p.r(C)p.r(U)p.r(U)p.r(G)p.r(C)p.r(G)p.d(A)p.d(A)}$$$RNA1{StrandType:ss}|RNA2{StrandType:as}$”, the normalised inhibition (eCFP-eYFP dual reporter) turned out to be 97.3%.

“RNA1{r(C)p.r(G)p.r(C)p.r(A)p.r(C)p.r(U)p.r(U)p.r(C)p.r(A)p.r(G)p.r(U)p.r(G)p.r(G)p.r(G)p.r(A)p.r(A)p.r(C)p.r(A)p.r(G)p.d(T)p.d(T)}|RNA2{r(C)p.r(U)p.r(G)p.r(U)p.r(U)p.r(C)p.r(C)p.r(C)p.r(A)p.r(C)p.r(U)p.r(G)p.r(A)p.r(A)p.r(G)p.r(U)p.r(G)p.r(C)p.r(G)p.d(G)p.d(T)}$$$RNA1{StrandType:ss}|RNA2{StrandType:as}$”: the normalised inhibition (eCFP-eYFP dual reporter) came to 91.1%.

Turning to “RNA1{r(C)p.r(G)p.r(G)p.r(C)p.r(G)p.r(G)p.r(A)p.r(G)p.r(A)p.r(U)p.r(G)p.r(C)p.r(U)p.r(C)p.r(A)p.r(C)p.r(U)p.r(U)p.r(U)p.d(T)p.d(T)}|RNA2{r(A)p.r(A)p.r(A)p.r(G)p.r(U)p.r(G)p.r(A)p.r(G)p.r(C)p.r(A)p.r(U)p.r(C)p.r(U)p.r(C)p.r(C)p.r(G)p.r(C)p.r(C)p.r(G)p.d(A)p.d(G)}$$$RNA1{StrandType:ss}|RNA2{StrandType:as}$”, the normalised inhibition (eCFP-eYFP dual reporter) worked out at 118%.

Take “RNA1{r(C)p.r(U)p.r(A)p.r(C)p.r(C)p.r(U)p.r(A)p.r(U)p.r(C)p.r(A)p.r(A)p.r(G)p.r(G)p.r(A)p.r(G)p.r(A)p.r(U)p.r(C)p.r(A)p.d(T)p.d(T)}|RNA2{r(U)p.r(G)p.r(A)p.r(U)p.r(C)p.r(U)p.r(C)p.r(C)p.r(U)p.r(U)p.r(G)p.r(A)p.r(U)p.r(A)p.r(G)p.r(G)p.r(U)p.r(A)p.r(G)p.d(G)p.d(G)}$$$RNA1{StrandType:ss}|RNA2{StrandType:as}$”: the normalised inhibition (eCFP-eYFP dual reporter) was found to be 114%.

For “RNA1{r(C)p.r(U)p.r(A)p.r(U)p.r(C)p.r(A)p.r(A)p.r(G)p.r(G)p.r(A)p.r(G)p.r(A)p.r(U)p.r(C)p.r(A)p.r(U)p.r(U)p.r(C)p.r(A)p.d(T)p.d(T)}|RNA2{r(U)p.r(G)p.r(A)p.r(A)p.r(U)p.r(G)p.r(A)p.r(U)p.r(C)p.r(U)p.r(C)p.r(C)p.r(U)p.r(U)p.r(G)p.r(A)p.r(U)p.r(A)p.r(G)p.d(G)p.d(T)}$$$RNA1{StrandType:ss}|RNA2{StrandType:as}$”, the normalised inhibition (eCFP-eYFP dual reporter) was 115%.
